Common to all, as to type: cell-based
For series [1], the system named is Aspergillus fumigatus NCPF2010. Description: Planktonic fungus growth: broth microdilution assay (NCPF2010). How it is done:
(§1) This assay was conducted using a modified method published by EUCAST (Rodriguez-Tudela, et al., 2008). Spores of Aspergillus fumigatus (NCPF2010, NCPF7010 [methionine 220 mutation], NCPF7099 [Glycine G54 mutation]) from Public Health England, Wiltshire; TR34/L98H mutants from St Louis Hospital, Paris, France; TR46/Y121F/T289A mutants from University of Delhi, Delhi, India) were cultured in Sabouraud dextrose agar for 3 days. A stock spore suspension was prepared from a Sabouraud dextrose agar culture by washing with PBS-tween (10 mL; phosphate buffered saline containing 0.05% Tween-20, 100 U/mL penicillin and 100 U/mL streptomycin). The spore count was assessed using a Neubauer haemocytometer and then adjusted to 10^6 spores/mL with PBS. A working suspension of spores (2×10^5 spores/mL) was prepared in filter sterilised, BSA MOPS RPMI-1640 (50 mL; RPMI-1640 containing 2 mM L-glutamine, 0.5% BSA, 2% glucose, 0.165 M MOPS, buffered to pH 7 with NaOH).
(§2) For the assay, BSA MOPS RPMI-1640 (50 μL/well) was added throughout the 384-well plate (Catalogue number 353962, BD Falcon, Oxford, UK) first. Test compounds (0.5 μL DMSO solution) were then added in quadruplicate using an Integra VIAFLO 96 (Integra, Zizers, Switzerland), and mixed well using a plate mixer. Subsequently 50 μL of the working spore suspension prepared above was added to all wells except non-spore control wells. For non-spore control wells, BSA MOPS-RPMI solution (50 μL/well) was added instead. The plate was covered with a plastic lid, and incubated (35° C. with ambient air) for 48 hr. The OD of each well at 530 nm was determined using a multi-scanner (Clariostar: BMG, Buckinghamshire, UK). The percentage inhibition for each well was calculated and the MIC50, MIC75 and MIC90 values were calculated from the concentration-response curve generated for each test compound.
A general note: Broth dilution looks for growth in wells or tubes with falling amounts of substance.

For series [2], the system named is Aspergillus fumigatus L98H (TR34/L98H). Nature of the series: Planktonic fungus growth: broth microdilution assay (L98H). The settings on record: for MIC: Aspergillus fumigatus, read-out: MIC75 Values against Aspergillus fumigatus isolate L98H. How it is done:
as §1, §2

The subject of series [3] is Aspergillus fumigatus TR46 (TR46/Y121F/T289A). Description: Planktonic fungus growth: broth microdilution assay (TR46). The following applies: for MIC: Aspergillus fumigatus, read-out: MIC75 Values against Aspergillus fumigatus isolate TR46. How it is done: as §1, §2
Series [4] concerns Aspergillus fumigatus NCPF7099. Nature of the series: Planktonic fungus growth: broth microdilution assay (NCPF7099). How it is done:
as §1, §2

Series [5] relates to Aspergillus fumigatus NCPF7100. Nature of the series: Planktonic fungus growth: broth microdilution assay (NCPF7100). The following applies: for MIC: Aspergillus fumigatus, NCPF7100, read-out: MIC75 Values against Aspergillus fumigatus isolate NCPF7100.
Series [6] can be described thus: Cell viability: resazurin assay. The following applies: human, BEAS2B cells; 1 day incubation, resazurin; n = 3. How it is done: (§3) BEAS2B cells were seeded in 384-well plates (100 μL; 3000/well/; BD Falcon, Catalogue No 353962) in RPMI-LHC8 (RPMI-1640 and LHC8 media combined in equal proportions) one day before experimentation. For cell-free control wells, RPMI-LHC8 (100 μL) was added. Test compounds (0.5 μL of a DMSO solution) were added to give a final DMSO concentration of 0.5% using an Integra VIAFLO 96 (Integra, Zizers, Switzerland). BEAS2B cells were incubated with each test compound for 1 day (37° C./5% CO2 in RPMI-LHC8). After addition of resazurin stock solution (5 μL, 0.04%) the plates were incubated for a further 4 hr (37° C./5% CO2). The fluorescence of each well at 545 nm (excitation) and 590 nm (emission) was determined using a multi-scanner (Clariostar: BMG Labtech). The percentage loss of cell viability was calculated for each well relative to vehicle (0.5% DMSO) treatment. Where appropriate, a CC50 value was calculated from the concentration-response curve generated from the concentration-response curve for each test compound.
In general terms: Resazurin is reduced to fluorescent resorufin, in cell work by metabolically active cells.

Series [7] has as its system BEAS2B cells. Nature of the series: Cell viability: resazurin assay. The following applies: for effect on the viability of BEAS2B bronchial epithelial cells: at concentrations indicated in Table 4. How it is done: as §3
The subject of series [8] is Aspergillus fumigatus (azole resistant strain: TR34/L98H). Nature of the series: Aspergillus fumigatus infection of human alveoli bilayers (transwells), azole resistant strain. The following applies: TR34-L98H, Compound 0.3 μg/mL upper chamber, posaconazole 0.1 μg/mL lower chamber, combination of both. How it is done:
In vitro models of human alveoli, consisting of a bilayer of human alveolar epithelial cells and endothelial cells, were prepared as previously described (Hope et al., 2007). This system allows administration of a test compound to the upper (“air” space) and/or lower (“systemic” space) compartments. This flexibility has been exploited to explore the effects of combination treatment by dosing Compound (I) to the upper chamber and posaconazole or other anti-fungal agents to the lower chamber. Primary human pulmonary artery endothelial cells (HPAEC) were harvested and diluted to 10^6 cells/mL in EGM-2 media (Lonza, Basel, Switzerland). Transwells were inverted and the cell suspension (100 μL/well) applied to the base of each transwell. The inverted transwells were incubated at RT within a flow hood for 2 hr after which they were turned upright. EGM-2 media was added to the lower (700 μL/well) and upper (100 μL/well) compartments and the transwells were incubated for 48 hr (37° C., 5% CO2). The EGM-2 media in the lower compartment was then replaced with fresh EGM-2 media. A549 cells were harvested and diluted to 5×10^5 cells/mL in 10% EBM, then added to the upper compartment (100 μL/well) of all transwells and the plates incubated for 72 hr (37° C., 5% CO2). Conidia of itraconazole sensitive Aspergillus fumigatus s (NCPF2010) and itraconazole resistant (TR34-L98H) strains were cultured separately in Sabouraud dextrose agar for 3 days. A stock conidia suspension of either strain was prepared from a Sabouraud dextrose agar culture by washing with PBS-tween (10 mL; PBS containing 0.05% Tween-20, 100 U/mL Penicillin and 100 U/mL Streptomycin). The conidia count was assessed using a Neubauer haemocytometer and adjusted to 10^6 conidia/mL with PBS. A working stock of conidia was prepared in EBM (10^5 conidia/mL) immediately prior to use.
Test and reference compounds (or neat DMSO as the vehicle) were added to the appropriate wells of 24-well plates (3 μL/well containing 600 μL of 2% FBS EBM) for lower compartment treatment and to 96-well plates (1 μL/well containing 200 μL of 2% FBS EBM) for the treatment of the upper compartment, to provide a final DMSO concentration of 0.5%. The media in the upper compartment was aspirated and that containing the appropriate test and reference compounds, or vehicle, were added (100 μL/well). Transwells were then transferred into the 24-well plate containing the test and reference compounds or DMSO vehicle. After incubation for 1 hr (35° C., 5% CO2) the conidia suspension (10 μL/well) was added to the upper compartment of each transwell. Plates were then incubated for 24 hr (35° C., 5% CO2). Supernatants from each compartment (5 μL/compartment) were collected and stored (−20° C.). Media was replaced daily after collection of the supernatants and all wells were treated with test and reference compounds or with DMSO, as described above, for 3 days. Samples continued to be collected until fungal growth was visible by eye in all transwells. The levels of GM in the supernatant in lower compartment were then measured by ELISA (BioRad, CA, USA) as an index of Aspergillus fumigatus invasion.

[9] abbreviates: Aspergillus fumigatus, NCPF2010, n = 2-3, read-out: MIC75 Values against Aspergillus fumigatus isolate NCPF2010.
Where [10] appears, read: Aspergillus fumigatus, NCPF7099, n = 2-3, read-out: MIC75 Values against Aspergillus fumigatus isolate NCPF7099.
Where [11] appears, read: broth microdilution assay, n = 2-3.

Consider four compounds from patent publication US10513511B2, “Aqueous suspension formulation comprising 4-(4-(4-(((3R,5R)-5-((1H-1,2,4-triazol-1-yl)methyl)-5-(2,4-difluoro-phenyl)tetrahydrofuran-3-yl)methoxy)-3-methylphenyl) or a pharmaceutically acceptable salt thereof” (PULMOCIDE LIMITED, priority 2015, dated 2019).

Molecules are shown by their SMILES. ≈ marks a conversion by molar mass, not a printed value. Read-outs that look alike come from different tables or passages of the source.

Usually CC50 stands for the concentration at which the toxic effect on the cells reaches its halfway point. For `Cc1cc(N2CCN(c3ccc(C(=O)N[C@@H]4CCCC[C@H]4O)cc3)CC2)ccc1OC[C@@H]1CO[C@@](Cn2cncn2)(c2ccc(F)cc2F)C1` [Compound (Ib), 4-(4-(4-(((3R,5R)-5-((1H-1,2,4-triazol-1-yl)methyl)-5-(2,4-difluorophenyl)tetrahydrofuran-3-yl)methoxy)-3-methylphenyl)piperazin-1-yl)-N-((1R,2R)-2-hydroxycyclohexyl)benzamide], the MIC in series [1] (setting [9]) stood at 0.00802 µM (≈ 0.00551 µg/mL); in series [2] it was 0.303 µM (≈ 0.208 µg/mL); in series [3], 0.334 µM (≈ 0.229 µg/mL); in series [4] (setting [10]), 0.0862 µM (≈ 0.0592 µg/mL); in series [5], 0.0873 µM (≈ 0.06 µg/mL). The 50% cytotoxic concentration (CC50) at 1 day in series [6] was > 14.6 µM. Also, in series [7], the “effect on the viability of BEAS2B bronchial epithelial cells” value is recorded as “no or little effect”.
As to `C[C@@H]1[C@H](O)[C@@H](C)/C=C/C=C/C=C/C=C/C=C/C=C/C=C/[C@H](O[C@@H]2O[C@H](C)[C@@H](O)[C@H](N)[C@@H]2O)C[C@@H]2O[C@](O)(C[C@@H](O)C[C@@H](O)[C@H](O)CC[C@@H](O)C[C@@H](O)CC(=O)O[C@H]1C)C[C@H](O)[C@H]2C(=O)O` [Amphotericin B, reference compound], the MIC in series [1] (n = 2-3, read-out: MIC75 Values against Aspergillus fumigatus isolate NCPF2010) turned out to be 0.407 µM (≈ 0.376 µg/mL); in series [4] (n = 2-3, read-out: MIC75 Values against Aspergillus fumigatus isolate NCPF7099) it was 0.248 µM (≈ 0.229 µg/mL). In addition, in series [2] (setting [11]), the “MIC75 Values against Aspergillus fumigatus isolate L98H” value is 0.195 µM (≈ 0.18 µg/mL). Moreover, the “MIC75 Values against Aspergillus fumigatus isolate TR46” value in series [3] (setting [11]) is 0.187 µM (≈ 0.173 µg/mL). Further, the “MIC75 Values against Aspergillus fumigatus isolate NCPF7100” value in series [5] (setting [11]) worked out at 0.523 µM (≈ 0.483 µg/mL). In addition, the CC50 in series [7] (1 day incubation, resazurin, n = 3) turned out to be 2.34 µM.
Take `Cc1cc(N2CCN(c3ccc(C(=O)NC4CCCCC4O)cc3)CC2)ccc1OC[C@@H]1CO[C@@](Cn2cncn2)(c2ccc(F)cc2F)C1` (stereo partly drawn) [Compound (I), 4-(4-(4-(((3R,5R)-5-((1H-1,2,4-triazol-1-yl)methyl)-5-(2,4-difluorophenyl)tetrahydrofuran-3-yl)methoxy)-3-methylphenyl)piperazin-1-yl)-N-(2-hydroxycyclohexyl)benzamide]: the “GM Levels in the Lower Chamber, OD value” was found to be 0 OD in series [8] (Day 0), 0.016 OD in series [8] (Day 1), 0.84 OD in series [8] (Day 2) and 1.01 OD in series [8] (Day 3). Also, the “GM Levels in the Lower Chamber, % inhibition vs. vehicle control” value was determined as 98% in series [8] (Day 1), 24% in series [8] (Day 2) and 4.6% in series [8] (Day 3). For the same compound, the “DFB50: Days taken to reach a fungal burden of 50% of control” value in series [8] was found to be 1.53 days.
As for `Cc1cc(N2CCN(c3ccc(C(=O)N[C@@H]4CCCC[C@@H]4O)cc3)CC2)ccc1OC[C@@H]1CO[C@@](Cn2cncn2)(c2ccc(F)cc2F)C1` [Compound (Id), 4-(4-(4-(((3R,5R)-5-((1H-1,2,4-triazol-1-yl)methyl)-5-(2,4-difluorophenyl)tetrahydrofuran-3-yl)methoxy)-3-methylphenyl)piperazin-1-yl)-N-((1R,2S)-2-hydroxycyclohexyl)benzamide], the MIC is 0.00851 µM (≈ 0.00584 µg/mL) in series [1] (setting [9]); 0.07 µM (≈ 0.0481 µg/mL) in series [2]; 0.316 µM (≈ 0.217 µg/mL) in series [3]; 0.0117 µM (≈ 0.00804 µg/mL) in series [4] (setting [10]); 0.0252 µM (≈ 0.0173 µg/mL) in series [5]. In addition, the half-maximal cytotoxic concentration (CC50) at 1 day in series [6] is > 14.6 µM. Besides, the “effect on the viability of BEAS2B bronchial epithelial cells” value in series [7] was “no or little effect”.
